Laboratory results taken from paper PMC10218862 (2023).

Test system: Tel22 (DNA, G4) AGGGTTAGGGTTAGGGTTAGGG
Assay: CD melting, SVD global fit
Conditions: 150 mM KCl; 50 mM phosphate, 0.3 mM EDTA, pH 7; 60 μM ligand, 30 μM DNA; not irradiated; 3–4

Tm: ~ 3 degrees
Structure (SMILES): C[n+]1ccc(-c2c3nc(c(-c4cc[n+](C)cc4)c4ccc([nH]4)c(-c4cc[n+](C)cc4)c4nc(c(-c5cc[n+](C)cc5)c5ccc2[nH]5)C=C4)C=C3)cc1
